The IC50 is the concentration that inhibits the measured activity by half. Read a low IC50 as greater potency in that assay.

Where only a bound is given, the exact number is not on record here.

In US20140058103A1, “Inhibitors of PI3K-Delta and Methods of Their Use and Manufacture” (Exelixis, Inc., priority 2010, published 2014) one finds IC50 data, which are given here for 31 compounds.

The experiment concerns the target PI3K delta (Homo sapiens, UniProt O00329). Kind of experiment: Luciferase-coupled chemiluminescence kinase assay (ATP consumption, KinaseGlo). The class given is biochemical. The gist of the method:
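ATP consumption measured by KinaseGlo luciferase chemiluminescence after a 2 h reaction at ambient temperature, with ATP at or below the kinase KM. Ten inhibitor concentrations per curve; IC50 from four-parameter nonlinear regression.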
In general terms: Kinase-Glo reads ATP consumption through a luciferase reaction.

Sequence of PI3K delta (O00329 whole entry): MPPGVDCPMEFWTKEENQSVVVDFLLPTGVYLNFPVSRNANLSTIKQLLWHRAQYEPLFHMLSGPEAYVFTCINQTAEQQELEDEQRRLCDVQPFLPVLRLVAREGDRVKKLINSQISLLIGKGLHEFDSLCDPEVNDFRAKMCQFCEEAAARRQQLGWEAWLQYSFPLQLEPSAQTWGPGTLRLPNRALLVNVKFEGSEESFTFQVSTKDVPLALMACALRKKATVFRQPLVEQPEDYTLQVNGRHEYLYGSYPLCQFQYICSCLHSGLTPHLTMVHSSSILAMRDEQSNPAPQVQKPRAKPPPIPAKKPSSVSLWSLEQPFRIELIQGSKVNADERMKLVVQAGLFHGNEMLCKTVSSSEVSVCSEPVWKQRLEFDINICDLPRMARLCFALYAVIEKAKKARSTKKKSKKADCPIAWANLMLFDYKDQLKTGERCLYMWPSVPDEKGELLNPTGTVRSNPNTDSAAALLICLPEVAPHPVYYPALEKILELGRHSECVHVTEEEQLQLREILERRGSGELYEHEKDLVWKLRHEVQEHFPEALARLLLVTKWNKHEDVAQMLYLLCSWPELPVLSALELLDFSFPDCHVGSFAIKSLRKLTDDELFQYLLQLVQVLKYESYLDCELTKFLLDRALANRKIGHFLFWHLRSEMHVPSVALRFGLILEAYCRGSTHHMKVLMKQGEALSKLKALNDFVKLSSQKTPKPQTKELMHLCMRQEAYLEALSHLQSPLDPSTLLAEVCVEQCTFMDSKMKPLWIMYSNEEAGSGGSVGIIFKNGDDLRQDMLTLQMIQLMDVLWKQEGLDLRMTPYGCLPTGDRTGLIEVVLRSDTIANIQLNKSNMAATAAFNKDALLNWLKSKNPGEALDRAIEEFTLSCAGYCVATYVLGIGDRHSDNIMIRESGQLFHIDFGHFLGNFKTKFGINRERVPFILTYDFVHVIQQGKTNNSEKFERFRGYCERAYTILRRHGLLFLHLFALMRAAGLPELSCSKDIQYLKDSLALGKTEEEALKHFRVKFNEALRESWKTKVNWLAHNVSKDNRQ
Sequence of PI3K delta (P27986 whole entry partner): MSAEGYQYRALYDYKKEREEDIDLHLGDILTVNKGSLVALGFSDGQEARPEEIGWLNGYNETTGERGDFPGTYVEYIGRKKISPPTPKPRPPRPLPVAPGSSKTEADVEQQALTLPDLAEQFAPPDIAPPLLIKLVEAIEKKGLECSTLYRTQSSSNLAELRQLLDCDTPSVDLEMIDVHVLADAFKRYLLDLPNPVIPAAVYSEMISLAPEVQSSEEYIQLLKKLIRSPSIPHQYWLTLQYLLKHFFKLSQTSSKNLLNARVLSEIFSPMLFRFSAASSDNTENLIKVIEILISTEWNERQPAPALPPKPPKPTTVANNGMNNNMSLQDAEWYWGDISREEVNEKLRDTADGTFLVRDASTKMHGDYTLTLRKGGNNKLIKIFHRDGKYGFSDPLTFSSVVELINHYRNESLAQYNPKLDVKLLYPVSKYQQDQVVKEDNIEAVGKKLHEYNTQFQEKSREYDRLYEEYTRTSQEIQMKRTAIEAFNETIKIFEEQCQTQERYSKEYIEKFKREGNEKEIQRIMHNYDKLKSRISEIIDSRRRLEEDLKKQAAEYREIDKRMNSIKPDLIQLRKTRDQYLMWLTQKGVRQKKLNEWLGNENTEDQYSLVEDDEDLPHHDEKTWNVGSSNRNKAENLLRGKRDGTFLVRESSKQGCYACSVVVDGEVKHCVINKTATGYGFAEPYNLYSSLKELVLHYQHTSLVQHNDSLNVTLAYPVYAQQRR

`Cn1c(C(=O)NCC2CC2)nc2c(N3CCC(N4c5ccccc5NS4(=O)=O)CC3)ncnc21` [Compound 133, N-(cyclopropylmethyl)-6-[4-(2,2-dioxido-2,1,3-benzothiadiazol-1(3H)-yl)piperidin-1-yl]-9-methyl-9H-purine-8-carboxamide] displayed an IC50 of 0.05 to 0.25 µM.

With `Cn1c(C(F)(F)F)nc2c(N3CCC(n4c(=O)[nH]c5ccccc54)CC3)ncnc21` [Compound 134, 1-{1-[9-Methyl-8-(trifluoromethyl)-9H-purin-6-yl]piperidin-4-yl}-1,3-dihydro-2H-benzimidazol-2-one], the IC50 is 0.25 to 0.5 µM. As for `Cn1c(-c2cnco2)nc2c(N3CCC(n4c(=O)[nH]c5ccccc54)CC3)ncnc21` [Compound 135, 1-{1-[9-methyl-8-(1,3-oxazol-5-yl)-9H-purin-6-yl]piperidin-4-yl}-1,3-dihydro-2H-benzimidazol-2-one], the IC50 was in the range of 0.05 to 0.25 µM.

In the case of `CC(C)c1ccc2c(c1)C1(CCN(c3ncnc4c3nc(C(=O)NCC3CC3)n4C)CC1)C(=O)N2` [Compound 136, N-(cyclopropylmethyl)-9-methyl-6-[5-(1-methylethyl)-2-oxo-1,2-dihydro-1′H-spiro[indole-3,4′-piperidin]-1′-yl]-9H-purine-8-carboxamide], the 50% inhibitory concentration (IC50) was 0.5 to 1.5 µM. For `Cn1c(C(=O)NCC2CC2)nc2c(N3CC(n4c(=O)[nH]c5ccccc54)C3)ncnc21` [Compound 137, N-(cyclopropylmethyl)-9-methyl-6-[3-(2-oxo-2,3-dihydro-1H-benzimidazol-1-yl)azetidin-1-yl]-9H-purine-8-carboxamide] the value was 0.05 to 0.25 µM; for `Cn1c(C(=O)NCC2CC2)nc2c(N3CCC4(CC3)OC(=O)c3ccccc34)ncnc21` [Compound 138, N-(cyclopropylmethyl)-9-methyl-6-(3-oxo-1′H,3H-spiro[2-benzofuran-1,4′-piperidin]-1′-yl)-9H-purine-8-carboxamide], 0.5 to 1.5 µM; for `C#CCNC(=O)c1nc2c(N3CCC(n4c(=O)[nH]c5ccccc54)CC3)ncnc2n1C` [Compound 139, 9-methyl-6-[4-(2-oxo-2,3-dihydro-1H-benzimidazol-1-yl)piperidin-1-yl]-N-prop-2-yn-1-yl-9H-purine-8-carboxamide], 0.05 to 0.25 µM.

For the compound `C#CCNC(=O)c1nc2c(N3CCC4(CC3)C(=O)Nc3ccccc34)ncnc2n1C` [Compound 140, 9-methyl-6-(2-oxo-1,2-dihydro-1′H-spiro[indole-3,4′-piperidin]-1′-yl)-N-prop-2-yn-1-yl-9H-purine-8-carboxamide], the half-maximal inhibitory concentration (IC50) lay in the range of 0.05 to 0.25 µM.

`CN1C(=O)C2(CCN(c3ncnc4c3nc(C(=O)NCC3CC3)n4C)CC2)c2ccccc21` [Compound 141, N-(cyclopropylmethyl)-9-methyl-6-(1-methyl-2-oxo-1,2-dihydro-1′H-spiro[indole-3,4′-piperidin]-1′-yl)-9H-purine-8-carboxamide]: the IC50 is 0.5 to 1.5 µM. For the compound `Cn1c(C(=O)NCC2CC2)nc2c(N3CCC4(CC3)NC(=O)c3ccccc34)ncnc21` [Compound 142, N-(cyclopropylmethyl)-9-methyl-6-(3-oxo-2,3-dihydro-1′H-spiro[isoindole-1,4′-piperidir]-1′-yl)-9H-purine-8-carboxamide], the IC50 lay within 0.5 to 1.5 µM. The value for `Cn1c(C(=O)NCC2CC2)nc2c(N3CCC(n4nnc5ccccc54)CC3)ncnc21` [Compound 143, 6-[4-(1H-1,2,3-benzotriazol-1-yl)piperidin-1-yl]-N-(cyclopropylmethyl)-9-methyl-9H-purine-8-carboxamide] was 0.5 to 1.5 µM; that for `C/C=C/c1nc2c(N3CCC(n4c(=O)[nH]c5ccccc54)CC3)ncnc2n1C` [Compound 144, 1-(1-{9-methyl-8-[(1E)-prop-1-en-1-yl]-9H-purin-6-yl}piperidin-4-yl)-1,3-dihydro-2H-benzimidazol-2-one] was 0.5 to 1.5 µM; that for `Cn1c(C(=O)NCC2CC2)nc2c(N3CC(n4c(=O)[nH]c5cc(C(F)(F)F)ccc54)C3)ncnc21` [Compound 145, N-(cyclopropylmethyl)-9-methyl-6-{3-[2-oxo-5-(trifluoromethyl)-2,3-dihydro-1H-benzimidazol-1-yl]azetidin-1-yl}-9H-purine-8-carboxamide] was 0.25 to 0.5 µM. `CCn1cc(-c2nc3c(N4CCC(n5c(=O)[nH]c6ccccc65)CC4)ncnc3n2C)cn1` [Compound 146, 1-{1-[8-(1-Ethyl-1H-pyrazol-4-yl)-9-methyl-9H-purin-6-yl]piperidin-4-yl}-1,3-dihydro-2H-benzimidazol-2-one] had an IC50 below 0.05 µM.

Regarding `CCCn1cc(-c2nc3c(N4CCC(n5c(=O)[nH]c6ccccc65)CC4)ncnc3n2C)cn1` [Compound 147, 1-{1-[9-methyl-8-(1-propyl-1H-pyrazol-4-yl)-9H-purin-6-yl]piperidin-4-yl}-1,3-dihydro-2H-benzimidazol-2-one], the IC50 is below 0.05 µM. The compound `CC(C)Cn1cc(-c2nc3c(N4CCC(n5c(=O)[nH]c6ccccc65)CC4)ncnc3n2C)cn1` [Compound 148, 1-(1-{9-methyl-8-[1-(2-methylpropyl)-1H-pyrazol-4-yl]-9H-purin-6-yl}piperidin-4-yl)-1,3-dihydro-2H-benzimidazol-2-one] yielded an IC50 below 0.05 µM. Take `Cn1cc(-c2nc3c(N4CCC(n5c(=O)[nH]c6ccccc65)CC4)ncnc3n2C)cn1` [Compound 149, 1-{1-[9-Methyl-8-(1-methyl-1H-pyrazol-4-yl)-9H-purin-6-yl]piperidin-4-yl}-1,3-dihydro-2H-benzimidazol-2-one]: the IC50 was below 0.05 µM. The compound `CC(C)n1cc(-c2nc3c(N4CCC(n5c(=O)[nH]c6ccccc65)CC4)ncnc3n2C)cn1` [Compound 152, 1-(1-{9-methyl-8-[1-(1-methylethyl)-1H-pyrazol-4-yl]-9H-purin-6-yl}piperidin-4-yl)-1,3-dihydro-2H-benzimidazol-2-one] returned a half-maximal inhibitory concentration (IC50) below 0.05 µM. The value for `Cn1c(-n2cnc(Br)c2)nc2c(N3CCC(n4c(=O)[nH]c5ccccc54)CC3)ncnc21` [Compound 153, 1-{1-[8-(4-bromo-1H-imidazol-1-yl)-9-methyl-9H-purin-6-yl]piperidin-4-yl}-1,3-dihydro-2H-benzimidazol-2-one] was 0.05 to 0.25 µM.

`CCn1c(C(=O)N[C@H]2CC[C@H](O)CC2)nc2c(N3CCC(n4c(=O)[nH]c5ccccc54)CC3)ncnc21` [Compound 154, 9-ethyl-N-(trans-4-hydroxycyclohexyl)-6-[4-(2-oxo-2,3-dihydro-1H-benzimidazol-1-yl)piperidin-1-yl]-9H-purine-8-carboxamide] showed an IC50 below 0.05 µM. For `CCn1c(C(=O)NCC(F)(F)F)nc2c(N3CCC(n4c(=O)[nH]c5ccccc54)CC3)ncnc21` [Compound 155, 9-ethyl-6-[4-(2-oxo-2,3-dihydro-1H-benzimidazol-1-yl)piperidin-1-yl]-N-(2,2,2-trifluoroethyl)-9H-purine-8-carboxamide] the value was below 0.05 µM; for `CCn1c(C(=O)NCC2CCOCC2)nc2c(N3CCC(n4c(=O)[nH]c5ccccc54)CC3)ncnc21` [Compound 156, 9-ethyl-6-[4-(2-oxo-2,3-dihydro-1H-benzimidazol-1-yl)piperidin-1-yl]-N-(tetrahydro-2H-pyran-4-ylmethyl)-9H-purine-8-carboxamide], below 0.05 µM; for `CCCCNC(=O)c1nc2c(N3CCC(n4c(=O)[nH]c5ccccc54)CC3)ncnc2n1CC` [Compound 157, N-butyl-9-ethyl-6-[4-(2-oxo-2,3-dihydro-1H-benzimidazol-1-yl)piperidin-1-yl]-9H-purine-8-carboxamide], 0.05 to 0.25 µM. For `CCn1c(C(=O)NCC(C)C)nc2c(N3CCC(n4c(=O)[nH]c5ccccc54)CC3)ncnc21` [Compound 158, 9-ethyl-N-(2-methylpropyl)-6-[4-(2-oxo-2,3-dihydro-1H-benzimidazol-1-yl)piperidin-1-yl]-9H-purine-8-carboxamide] the value was below 0.05 µM; for `CCn1c(C(=O)N[C@H]2CC[C@H](O)CC2)nc2c(N3CCC4(CC3)C(=O)Nc3ccccc34)ncnc21` [Compound 159, 9-ethyl-N-(trans-4-hydroxycyclohexyl)-6-(2-oxo-1,2-dihydro-1′H-spiro[indole-3,4′-piperidin]-1′-yl)-9H-purine-8-carboxamide], below 0.05 µM; for `CCn1c(C(=O)NCC(F)(F)F)nc2c(N3CCC4(CC3)C(=O)Nc3ccccc34)ncnc21` [Compound 160, 9-ethyl-6-(2-oxo-1,2-dihydro-1′H-spiro[indole-3,4′-piperidin]-1′-yl)-N-(2,2,2-trifluoroethyl)-9H-purine-8-carboxamide], below 0.05 µM.

As to `CCn1c(C(=O)NCC2CCOCC2)nc2c(N3CCC4(CC3)C(=O)Nc3ccccc34)ncnc21` [Compound 161, 9-ethyl-6-(2-oxo-1,2-dihydro-1′H-spiro[indole-3,4′-piperidin]-1′-yl)-N-(tetrahydro-2H-pyran-4-ylmethyl)-9H-purine-8-carboxamide], the IC50 was below 0.05 µM.

`CCCCNC(=O)c1nc2c(N3CCC4(CC3)C(=O)Nc3ccccc34)ncnc2n1CC` [Compound 162, N-butyl-9-ethyl-6-(2-oxo-1,2-dihydro-1′H-spiro[indole-3,4′-piperidin]-1′-yl)-9H-purine-8-carboxamide] displayed an IC50 below 0.05 µM. The value for `CCn1c(C(=O)NCC2CC2)nc2c(N3CCC4(CC3)C(=O)Nc3ccccc34)ncnc21` [Compound 163, N-(cyclopropylmethyl)-9-ethyl-6-(2-oxo-1,2-dihydro-1′H-spiro[indole-3,4′-piperidin]-1′-yl)-9H-purine-8-carboxamide] was below 0.05 µM; that for `CCn1c(C(=O)NCC(C)C)nc2c(N3CCC4(CC3)C(=O)Nc3ccccc34)ncnc21` [Compound 164, 9-ethyl-N-(2-methylpropyl)-6-(2-oxo-1,2-dihydro-1′H-spiro[indole-3,4′-piperidin]-1′-yl)-9H-purine-8-carboxamide] was below 0.05 µM; that for `Cn1c(-n2cnc(C(F)(F)F)c2)nc2c(N3CCC(n4c(=O)[nH]c5ccccc54)CC3)ncnc21` [Compound 165, 1-(1-{9-methyl-8-[4-(trifluoromethyl)-1H-imidazol-1-yl]-9H-purin-6-yl}piperidin-4-yl)-1,3-dihydro-2H-benzimidazol-2-one] was 0.05 to 0.25 µM.
